Experimental data as given in ChEMBL document CHEMBL4706479, “Novel Aryloxyethyl Derivatives of 1-(1-Benzoylpiperidin-4-yl)methanamine as the Extracellular Regulated Kinases 1/2 (ERK1/2) Phosphorylation-Preferring Serotonin 5-HT Receptor-Biased Agonists with Robust Antidepressant-like Activity” (J Med Chem, 2019).

Key:
[1] = biological target: T1, 5-hydroxytryptamine receptor 1A (Homo sapiens) (UniProt P08908); assay: Biased agonist activity at human recombinant 5-HT1A receptor stably expressed in CHO-K1 cells assessed as increase in calcium mobilization measured at 2 sec intervals for 180 secs by Fluo-4AM dye based fluorescence assay relative to serotonin; type: functional, cell-based; details: time 180.0 sec
T1 sequence (whole entry): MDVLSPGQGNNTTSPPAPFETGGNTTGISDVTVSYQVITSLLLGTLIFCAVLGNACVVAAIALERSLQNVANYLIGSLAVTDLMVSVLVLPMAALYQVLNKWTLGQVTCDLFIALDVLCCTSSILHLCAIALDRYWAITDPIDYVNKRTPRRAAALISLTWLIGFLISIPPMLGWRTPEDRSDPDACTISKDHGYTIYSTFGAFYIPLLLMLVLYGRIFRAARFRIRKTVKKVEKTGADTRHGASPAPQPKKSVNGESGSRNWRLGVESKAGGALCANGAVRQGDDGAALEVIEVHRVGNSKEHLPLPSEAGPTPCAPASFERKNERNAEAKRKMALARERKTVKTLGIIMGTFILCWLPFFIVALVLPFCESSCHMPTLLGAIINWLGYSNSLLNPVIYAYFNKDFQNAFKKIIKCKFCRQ

[2] = biological target: T1, 5-hydroxytryptamine receptor 1A (Homo sapiens); assay: Biased agonist activity at Gal4-VP16 transcription factor linked human 5-HT1A receptor expressed in human U2OS cells assessed as stimulation of beta-arrestin recruitment measured after 5 hrs by Tango assay relative to serotonin; type: cell-based; details: filed as agonist
[3] = biological target: T1, 5-hydroxytryptamine receptor 1A (Homo sapiens); assay: Biased agonist activity at human recombinant 5-HT1A receptor stably expressed in CHO-K1 cells assessed as inhibition of forskolin-induced cAMP accumulation after 40 mins by LANCE Ultra cAMP kit-based TR-FRET assay relative to serotonin; type: functional, cell-based
[4] = biological target: T2, Adrenergic receptor alpha-1 (Rattus norvegicus, UniProt P15823+P23944+P43140); assay: Displacement of [3H]-prazosin from alpha1 adrenergic receptor in rat cortex measured after 30 mins by microbeta2 scintillation counting method; type: tissue-based
T2 sequence (P15823 whole entry): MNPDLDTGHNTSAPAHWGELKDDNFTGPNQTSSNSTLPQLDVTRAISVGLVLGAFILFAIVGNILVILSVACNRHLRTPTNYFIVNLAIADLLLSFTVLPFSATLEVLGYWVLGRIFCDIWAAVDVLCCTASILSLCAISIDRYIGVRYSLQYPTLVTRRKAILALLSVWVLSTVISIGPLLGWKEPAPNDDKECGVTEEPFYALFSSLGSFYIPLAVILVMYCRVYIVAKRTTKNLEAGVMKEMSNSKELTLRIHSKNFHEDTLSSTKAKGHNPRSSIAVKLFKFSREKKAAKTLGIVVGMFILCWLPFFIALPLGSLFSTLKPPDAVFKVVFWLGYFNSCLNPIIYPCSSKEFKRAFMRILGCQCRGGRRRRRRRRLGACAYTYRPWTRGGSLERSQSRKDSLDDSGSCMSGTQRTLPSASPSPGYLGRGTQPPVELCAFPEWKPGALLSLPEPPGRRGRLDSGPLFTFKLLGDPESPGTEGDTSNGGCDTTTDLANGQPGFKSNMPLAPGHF
T2 sequence (P23944 whole entry): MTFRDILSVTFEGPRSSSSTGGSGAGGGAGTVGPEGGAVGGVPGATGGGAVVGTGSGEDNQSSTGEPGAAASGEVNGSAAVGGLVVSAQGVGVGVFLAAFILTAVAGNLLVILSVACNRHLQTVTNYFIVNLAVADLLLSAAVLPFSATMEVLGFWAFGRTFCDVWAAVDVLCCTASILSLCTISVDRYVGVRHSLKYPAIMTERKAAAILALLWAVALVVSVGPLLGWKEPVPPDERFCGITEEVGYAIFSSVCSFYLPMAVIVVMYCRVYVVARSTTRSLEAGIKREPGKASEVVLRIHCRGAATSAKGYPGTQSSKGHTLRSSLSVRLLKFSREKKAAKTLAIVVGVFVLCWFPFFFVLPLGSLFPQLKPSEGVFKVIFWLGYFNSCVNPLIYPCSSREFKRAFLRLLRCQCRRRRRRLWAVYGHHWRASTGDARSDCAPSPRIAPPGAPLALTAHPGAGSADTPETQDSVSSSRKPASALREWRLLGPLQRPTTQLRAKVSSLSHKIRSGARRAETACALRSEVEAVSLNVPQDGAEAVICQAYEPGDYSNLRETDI
T2 sequence (P43140 whole entry): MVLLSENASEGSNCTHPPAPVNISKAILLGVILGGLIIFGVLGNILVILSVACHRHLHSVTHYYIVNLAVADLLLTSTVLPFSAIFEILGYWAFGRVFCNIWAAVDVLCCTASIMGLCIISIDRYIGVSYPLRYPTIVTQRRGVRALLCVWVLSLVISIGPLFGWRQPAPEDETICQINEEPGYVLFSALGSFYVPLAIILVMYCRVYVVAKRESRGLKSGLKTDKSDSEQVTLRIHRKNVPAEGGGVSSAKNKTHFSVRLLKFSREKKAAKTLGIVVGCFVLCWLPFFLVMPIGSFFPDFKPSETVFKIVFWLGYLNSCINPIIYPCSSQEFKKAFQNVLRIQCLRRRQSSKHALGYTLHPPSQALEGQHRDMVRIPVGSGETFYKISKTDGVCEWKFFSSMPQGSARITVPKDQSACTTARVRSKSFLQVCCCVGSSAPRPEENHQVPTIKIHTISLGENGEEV

[5] = biological target: T3, 5-hydroxytryptamine receptor 1A (Homo sapiens, UniProt P08908); assay: Displacement of [3H]8-OH-DPAT from recombinant human 5HT1A receptor stably expressed in CHO-K1 cell membranes measured after 60 mins by microbeta2 scintillation counting method; set-up: species or system Cell membrane
T3 sequence (P08908 whole entry): T1 sequence (whole entry)

D(2) dopamine receptor = D(2) dopamine receptor (Homo sapiens, UniProt P14416); assay: Displacement of [3H]-methylspiperone from recombinant human D2 receptor stably expressed in CHO-K1 cell membranes measured after 60 mins by microbeta2 scintillation counting method; set-up: species or system Cell membrane
Rattus norvegicus [6] = assay: Antidepressant-like activity in Wistar rat assessed as reduction in immobility time at 15 mg/kg, ip administered 60 mins prior to testing and measured for 5 mins test period by Porsolt-forced swim test; type: functional; set-up: scale not given: the % may be the effect or the level left; details: time 65 min, 1.083 h
Rattus norvegicus [7] = assay: Antidepressant-like activity in Wistar rat assessed as minimum effective dose causing reduction in immobility time administered intraperitoneally with compound 60 mins prior to testing and measured for 5 mins test period by Porsolt-forced swim test; type: functional; details: ip, 1.083 h, time 65 min, read-out: MED
[8] = biological target: T3, 5-hydroxytryptamine receptor 1A; assay: Biased agonist activity at human recombinant 5-HT1A receptor stably expressed in CHO-K1 cells assessed as increase in ERK1/2 phosphorylation levels incubated for 15 mins by Alphalisa assay; type: cell-based
[9] = biological target: T3, 5-hydroxytryptamine receptor 1A; assay: Biased agonist activity at human recombinant 5-HT1A receptor stably expressed in CHO-K1 cells assessed as inhibition of forskolin-induced cAMP accumulation after 40 mins by LANCE Ultra cAMP kit-based TR-FRET assay; type: functional, cell-based
Rattus norvegicus [10] = assay: Antidepressant-like activity in Wistar rat assessed as minimum effective dose causing reduction in immobility time after oral administration with compound 60 mins prior to testing and measured for 5 mins test period by Porsolt-forced swim test; type: functional; details: 1.083 h, time 65 min, read-out: MED
[11] = biological target: T3, 5-hydroxytryptamine receptor 1A; assay: Biased agonist activity at human recombinant 5-HT1A receptor stably expressed in CHO-K1 cells assessed as increase in calcium mobilization measured at 2 sec intervals for 180 secs by Fluo-4AM dye based fluorescence assay; type: functional, cell-based
Rattus norvegicus [12] = assay: Antidepressant-like activity in Wistar rat assessed as maximum effective dose causing reduction in immobility time after oral administration with compound 60 mins prior to testing and measured for 5 mins test period by Porsolt-forced swim test; type: functional; details: time 65 min; 1.083 h
[13] = biological target: T1, 5-hydroxytryptamine receptor 1A (Homo sapiens); assay: Biased agonist activity at human recombinant 5-HT1A receptor stably expressed in CHO-K1 cells assessed as increase in ERK1/2 phosphorylation levels incubated for 15 mins by Alphalisa assay relative to serotonin; type: cell-based; details: filed as agonist
Rattus norvegicus [14] = assay: Antidepressant-like activity in Wistar rat assessed as reduction in immobility time at 0.63 mg/kg, sc administered 60 mins prior to testing and measured for 5 mins test period by Porsolt-forced swim test; type: functional; set-up: scale not given: the % may be the effect or the level left; details: time 65 min, 1.083 h
Rattus norvegicus [15] = assay: Antidepressant-like activity in Wistar rat assessed as minimum effective dose causing reduction in immobility time after sc administration with compound 60 mins prior to testing and measured for 5 mins test period by Porsolt-forced swim test; type: functional; details: 1 h, read-out: MED
[16] = Toxicity in Wistar rat assessed as minimum effective dose causing effect on flat body posture administered subcutaneously with compound and observed after 60 mins post treatment; details: in vivo, sc, 1 h
Rattus norvegicus [17] = assay: Antidepressant-like activity in Wistar rat assessed as reduction in immobility time at 10 mg/kg, ip administered 60 mins prior to testing and measured for 5 mins test period by Porsolt-forced swim test; type: functional; set-up: scale not given: the % may be the effect or the level left; details: time 65 min, 1.083 h

Sequence of D(2) dopamine receptor (P14416 whole entry): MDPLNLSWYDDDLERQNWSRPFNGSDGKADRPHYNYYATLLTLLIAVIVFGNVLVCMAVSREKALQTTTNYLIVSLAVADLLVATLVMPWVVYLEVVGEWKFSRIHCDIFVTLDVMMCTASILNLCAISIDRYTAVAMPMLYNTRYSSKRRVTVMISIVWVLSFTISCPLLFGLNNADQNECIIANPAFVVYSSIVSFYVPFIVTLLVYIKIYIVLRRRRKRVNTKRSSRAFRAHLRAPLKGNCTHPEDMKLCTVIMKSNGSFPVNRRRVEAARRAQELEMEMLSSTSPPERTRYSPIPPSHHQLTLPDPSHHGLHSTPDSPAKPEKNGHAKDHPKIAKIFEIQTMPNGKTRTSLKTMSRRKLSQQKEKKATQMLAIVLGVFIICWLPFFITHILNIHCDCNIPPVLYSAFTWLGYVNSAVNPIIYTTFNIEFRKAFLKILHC

## O=C(c1ccc(F)c(Cl)c1)N1CCC(F)(CNCCNc2ccccn2)CC1
[1]; filed as partial agonist
  Emax: 52%
[2]
  Emax: 99%
[3]; filed as agonist
  Emax: 86%

## O=C(c1ccc(F)c(Cl)c1)N1CCC(F)(CNCCOc2ncccn2)CC1
[4]
  pKi: < 6

## O=C(c1ccc(F)c(Cl)c1)N1CCC(F)(CNCCOc2ccncc2)CC1
[5]
  Ki: 389 nM
D(2) dopamine receptor
  Ki: > 1000 nM
[4]
  pKi: < 6

## CNC1(c2ccccc2Cl)CCCCC1=O (stereo not given) [KETAMINE]
Rattus norvegicus [6]
  Activity: 43%
Rattus norvegicus [7]
  minimal effective dose: 5 mg/kg

## O=C(c1ccc(F)c(Cl)c1)N1CCC(F)(CNCCOc2ccnnc2)CC1
[5]
  Ki: 200 nM
D(2) dopamine receptor
  Ki: > 1000 nM
[4]
  pKi: < 6

## Cc1cnc(CNCC2(F)CCN(C(=O)c3ccc(F)c(Cl)c3)CC2)nc1
[8]
  EC50: 4.68 nM
[5]
  Ki: 2.19 nM
[9]
  EC50: 60.3 nM
D(2) dopamine receptor
  Ki: > 1000 nM
Rattus norvegicus [10]
  minimal effective dose: 0.63 mg/kg
[11]
  EC50: 245 nM
Rattus norvegicus [12]
  ED: 5 mg/kg

## O=C(c1ccc(Cl)c(Cl)c1)N1CCC(F)(CNCCOc2ccccn2)CC1
[1]; filed as partial agonist
  Emax: 58%
[2]
  Emax: 99%
[3]; filed as agonist
  Emax: 71%
[13]
  Emax: 85%

## O=C(c1ccc(F)c(Cl)c1)N1CCC(F)(CNCCCc2ccccn2)CC1
[1]; filed as agonist
  Emax: 87%
[2]
  Emax: 101%
[3]; filed as partial agonist
  Emax: 74%

## O=C(c1ccc(Cl)c(Cl)c1)N1CCC(F)(CNCCOc2ccccc2)CC1
[5]
  Ki: 0.0148 nM
D(2) dopamine receptor
  Ki: > 1000 nM

## CCCN(CCC)C1CCc2cccc(O)c2C1 (racemic) [8-OH-DPAT]
Rattus norvegicus [14]
  Activity: 90%
[3]; filed as partial agonist
  Emax: 63%
[13]
  Emax: 93%
Rattus norvegicus [15]
  minimal effective dose: 0.16 mg/kg
[16]
  MED: 0.63 mg/kg

## CN(C)CCCN1c2ccccc2CCc2ccccc21 [IMIPRAMINE]
Rattus norvegicus [7]
  minimal effective dose: 10 mg/kg
Rattus norvegicus [17]
  Activity: 25%
